Experimental data from patent US10206909B2, “3-(1H-pyrrolo[2,3-B]pyridin-2-yl)-1H-pyrazolo[4,3-B]pyridines and therapeutic uses thereof” (Samumed, LLC, priority 2015, dated 2019).

Columns and labels:
Type in all cases: cell-based
SW480 colon cancer cells = assay: Cell viability assay (CellTiter-Blue); details: Homo sapiens; for EC50: 96 h, SW480 cell viability, four days, CellTiter-Blue; for inhibition at 10 µM: given where EC50 >10 μM, SW480 viability, read-out: percent inhibition at 10 μM
Protocol: Representative compounds were screened using the following assay procedure to assess the effect on cell viability as described below.
Each compound was dissolved in DMSO as a 10 mM stock and used to prepare compound source plates. Serial dilution (1:3, 8-point dose-response curves from 10 μM to 0.0045 μM) and compound transfer was performed using the ECHO 550 (Labcyte, Sunnyvale, Calif.) into 96-well clear bottom, black-walled plates (Corning-Costar).
Approximately 2×10^3 SW480 colon cancer cells were seeded into each well and allowed to incubate in the presence or absence of compound for four days at 37° C./5% CO2. Eight replicates of DMSO-treated cells served as controls and cells treated with compound were performed in duplicate.
After incubation, 20 μL of CellTiter-Blue (Promega) was added to each well allowed to incubate for approximately 3 hours. This reagent was a buffered solution which contains resazurin, metabolically active cells were able to reduce rezarurin (blue) into resorufin (pink) which was highly fluorescent. This measured fluorescence was used as a readout for cell viability.
After incubation, the plates were read at Ex 560 nm Em 590 nm (Cytation 3, BioTek). Dose-response curves were generated and EC50 concentration values were calculated using non-linear regression curve fit in the GraphPad Prism (San Diego, Calif.) or Dotmatics' Studies Software (Bishops Stortford, UK). For EC50 of >10 μM, the percent inhibition at 10 μM is provided.

[1] = tested on: Wnt activity (Sp5-Luc reporter, SW480 colon carcinoma cells); assay: Wnt activity screening assay: Sp5-Luc reporter gene assay in SW480 cells; details: Homo sapiens; for EC50: SW480 cells, overnight incubation; for inhibition at 10 µM: given where EC50 >10 μM, SW480, read-out: percent inhibition at 10 μM
Excerpt: The screening assay for Wnt activity is described as follows. Reporter cell lines can be generated by stably transducing cancer cell lines (e.g., colon cancer) or primary cells (e.g., IEC-6 intestinal cells) with a lentiviral construct that includes a Wnt-responsive promoter driving expression of the firefly luciferase gene.
SW480 colon carcinoma cells were transduced with a lentiviral vector expressing luciferase with a human Sp5 promoter consisting of a sequence of eight TCF/LEF binding sites. SW480 cells stably expressing the Sp5-Luc reporter gene and a hygromycin resistance gene were selected by treatment with 150 μg/mL of hygromycin for 7 days. These stably transduced SW480 cells were expanded in cell culture and used for all further screening activities. Each compound was dissolved in DMSO as a 10 mM stock and used to prepare compound source plates. Serial dilution (1:3, 10-point dose-response curves starting from 10 μM) and compound transfer was performed using the ECHO 550 (Labcyte, Sunnyvale, Calif.) into 384-well white solid bottom assay plates (Greiner Bio-One) with appropriate DMSO backfill for a final DMSO concentration of 0.1%. For Sp5-Luc reporter gene assays, the cells were plated at 4,000 cells/well in 384-well plates with medium containing 1% fetal bovine serum and incubated overnight at 37° C. and 5% CO2. Following incubation, 20 μl of BrightGlo luminescence reagent (Promega) was added to each well of the 384-well assay plates. The plates were placed on an orbital shaker for 2 min and then luminescence was quantified using the Envision (Perkin Elmer) plate reader. Readings were normalized to DMSO only treated cells, and normalized activities were utilized for EC50 calculations using the dose-response log (inhibitor) vs. response -variable slope (four parameters) nonlinear regression feature available in GraphPad Prism 5.0 (or Dotmatics). For EC50 of >10 μM, the percent inhibition at 10 μM is provided.

IL-6 (THP-1 cells) = assay: IL-6 inhibition in LPS-stimulated THP-1 cells (HTRF); details: Homo sapiens; for EC50: THP-1 cells, LPS 500 ng/mL, 22 hours, IL6 HTRF; for inhibition at 10 µM: given where EC50 >10 μM, THP-1, IL6, read-out: percent inhibition at 10 μM
Protocol: Human Monocyte Cell Culture: Human monocyte cell line (THP-1 cells; Catalog # TIB-202, ATCC, Manassas, Va.) were cultured in Roswell Park Memorial Institute (RPMI) 1640 Medium (Catalog #21870-100, Buffalo, N.Y.) with 1% L-glutamine, 1% HEPES, 1% Sodium Pyruvate, 2% Sodium Bicarbonate supplemented with 100 units/mL penicillin, 50 μg/mL streptomycin, 2-mercaptoethanol (0.05 mM) [basal medium] and 10% fetal bovine serum (Catalog #16140089, Life Technologies, Carlsbad, Calif.) at 37° C. and 5% CO2.
Compound Screening: THP-1 cells were cultured in basal media with 1% FBS for 24 hours before the start of the assay. Each compound was dissolved in DMSO as a 10 mM stock and used to prepare compound source plates. Serial dilution (1:3, 10-point dose-response curves starting from 10 μM) and compound transfer was performed using the ECHO 550 (Labcyte, Sunnyvale, Calif.) into 384-well white low volume assay plates (Greiner Bio-One) with appropriate DMSO backfill for a final DMSO concentration of 0.1%. THP-1 cells were plated at 5000 cells/well in the 384-well plates and incubated at 37° C. for 2 h. 500 ng/mL of LPS was added after 2 hours and cells were incubated for another 22 hours at 37° C. Plates were spun in a centrifuge for 1 minute at […] and a mixture of anti-IL6 XL665, and anti-IL6 Cryptate diluted in reconstitution buffer (Cisbio Inc.) was added to each well. Following incubation for 3 hrs at room temperature, Homogeneous Time-Resolved Fluorescence (HTRF) was measured using the Envision (Perkin Elmer) at 665 nm and […]. The ratio of fluorescence at 665 nm to 620 nm was used as a readout for IL6 quantification. All samples were processed in duplicate. Readings were normalized to DMSO treated cells and normalized activities were utilized for EC50 calculations using the dose-response log (inhibitor) vs. response —variable slope (four parameters) nonlinear regression feature available in GraphPad Prism 5.0 (or Dotmatics). For EC50 of >10 μM, the percent inhibition at 10 μM is provided.

Fc1cccc(-c2ccnc3[nH]c(-c4n[nH]c5ccc(-c6cccnc6)nc45)cc23)c1 [Compound 4, 3-(4-(3-Fluorophenyl)-1H-pyrrolo[2,3-b]pyridin-2-yl)-5-(pyridin-3-yl)-1H-pyrazolo[4,3-b]pyridine] was tested, and the EC50 (SW480 colon cancer cells) was greater than 10 µM, the inhibition at 10 µM (SW480 colon cancer cells) was 6.4% and the EC50 [1] was greater than 10 µM. For the same compound, the inhibition at 10 µM [1] was 47.3% and the EC50 (IL-6 (THP-1 cells)) was 1.84 µM.

CC(C)(C)C(=O)Nc1cncc(-c2ccc3[nH]nc(-c4cc5c(-c6cccc(F)c6)ccnc5[nH]4)c3n2)c1 [Compound 8, N-(5-(3-(4-(3-Fluorophenyl)-1H-pyrrolo[2,3-b]pyridin-2-yl)-1H-pyrazolo [4,3-b]pyridin-5-yl)pyridin-3-yl)pivalamide] was tested, and the EC50 (SW480 colon cancer cells) was greater than 10 µM, the inhibition at 10 µM (SW480 colon cancer cells) was 18.4% and the EC50 [1] was greater than 10 µM. It also gave an inhibition at 10 µM [1] of 14.3%, an EC50 (IL-6 (THP-1 cells)) greater than 10 µM and an inhibition at 10 µM (IL-6 (THP-1 cells)) of 13.7%.

Fc1cccc(-c2ccnc3[nH]c(-c4n[nH]c5ccc(-c6cncc(CN7CCCCC7)c6)nc45)cc23)c1 [Compound 15, 3-(4-(3-Fluorophenyl)-1H-pyrrolo[2,3-b]pyridin-2-yl)-5-(5-(piperidin-1-ylmethyl)pyridin-3-yl)-1H-pyrazolo[4,3-b]pyridine] showed an EC50 (SW480 colon cancer cells) greater than 10 µM, an inhibition at 10 µM (SW480 colon cancer cells) of 29.9% and an EC50 [1] greater than 10 µM. It also gave an inhibition at 10 µM [1] of 8%, an EC50 (IL-6 (THP-1 cells)) greater than 10 µM and an inhibition at 10 µM (IL-6 (THP-1 cells)) of 41%.

Cc1ccncc1-c1ccc2[nH]nc(-c3cc4c(-c5ccc(F)cc5)ccnc4[nH]3)c2n1 [Compound 33, 3-(4-(4-Fluorophenyl)-1H-pyrrolo[2,3-b]pyridin-2-yl)-5-(4-methylpyridin-3-yl)-1H-pyrazolo[4,3-b]pyridine] gave an EC50 (SW480 colon cancer cells) greater than 10 µM, an inhibition at 10 µM (SW480 colon cancer cells) of 15.9% and an EC50 [1] greater than 10 µM. The inhibition at 10 µM [1] was 16.2%, the EC50 (IL-6 (THP-1 cells)) was greater than 10 µM and the inhibition at 10 µM (IL-6 (THP-1 cells)) was 5.4%.

In the case of O=C(Nc1cncc(-c2ccc3[nH]nc(-c4cc5c(-c6ccc(F)cc6)ccnc5[nH]4)c3n2)c1)c1ccccc1 [Compound 39, N-(5-(3-(4-(4-Fluorophenyl)-1H-pyrrolo[2,3-b]pyridin-2-yl)-1H-pyrazolo [4,3-b]pyridin-5-yl)pyridin-3-yl)benzamide], the EC50 (SW480 colon cancer cells) is reported as greater than 10 µM, the inhibition at 10 µM (SW480 colon cancer cells) is reported as 11.1% and the EC50 [1] is reported as greater than 10 µM. The inhibition at 10 µM [1] was 0%, the EC50 (IL-6 (THP-1 cells)) was greater than 10 µM and the inhibition at 10 µM (IL-6 (THP-1 cells)) was 7.7%.

Compound Fc1ccc(-c2ccnc3[nH]c(-c4n[nH]c5ccc(-c6cncc(CN7CCC(F)(F)C7)c6)nc45)cc23)cc1 [Compound 54, 5-(5-((3,3-Difluoropyrrolidin-1-yl)methyl)pyridin-3-yl)-3-(4-(4-fluorophenyl)-1H-pyrrolo[2,3-b]pyridin-2-yl)-1H-pyrazolo[4,3-b]pyridine] has an EC50 (SW480 colon cancer cells) greater than 10 µM, an inhibition at 10 µM (SW480 colon cancer cells) of 27.8% and an EC50 [1] greater than 10 µM. For the same compound, the inhibition at 10 µM [1] was 10.2%, the EC50 (IL-6 (THP-1 cells)) was greater than 10 µM and the inhibition at 10 µM (IL-6 (THP-1 cells)) was 34.8%.

For Fc1ccc(-c2ccnc3[nH]c(-c4n[nH]c5ccc(-c6cncnc6)nc45)cc23)cc1 [Compound 55, 3-(4-(4-Fluorophenyl)-1H-pyrrolo[2,3-b]pyridin-2-yl)-5-(pyrimidin-5-yl)-1H-pyrazolo[4,3-b]pyridine], the EC50 (SW480 colon cancer cells) was greater than 10 µM, the inhibition at 10 µM (SW480 colon cancer cells) was 20.5% and the EC50 [1] was greater than 10 µM. The inhibition at 10 µM [1] was 32%, the EC50 (IL-6 (THP-1 cells)) was greater than 10 µM and the inhibition at 10 µM (IL-6 (THP-1 cells)) was 14.1%.

Compound CC(C)CC(=O)Nc1cncc(-c2ccc3[nH]nc(-c4cc5c(-c6ccccc6F)ccnc5[nH]4)c3n2)c1 [Compound 58, N-(5-(3-(4-(2-Fluorophenyl)-1H-pyrrolo[2,3-b]pyridin-2-yl)-1H-pyrazolo [4,3-b]pyridin-5-yl)pyridin-3-yl)-3-methylbutanamide] has an EC50 (SW480 colon cancer cells) greater than 10 µM, an inhibition at 10 µM (SW480 colon cancer cells) of 11.5% and an EC50 [1] of 0.517 µM. The EC50 (IL-6 (THP-1 cells)) was 0.1 µM.

Work on CN(C)Cc1cncc(-c2ccc3[nH]nc(-c4cc5c(-c6ccccc6F)ccnc5[nH]4)c3n2)c1 [Compound 69, 1-(5-(3-(4-(2-Fluorophenyl)-1H-pyrrolo[2,3-b]pyridin-2-yl)-1H-pyrazolo [4,3-b]pyridin-5-yl)pyridin-3-yl)-N,N-dimethylmethanamine] yielded an EC50 (SW480 colon cancer cells) greater than 10 µM, an inhibition at 10 µM (SW480 colon cancer cells) of 33.5% and an EC50 [1] greater than 10 µM. The inhibition at 10 µM [1] was 8.3% and the EC50 (IL-6 (THP-1 cells)) was 1.08 µM.

In the case of O=C(Nc1cncc(-c2ccc3[nH]nc(-c4cc5c(-c6ccccc6F)ccnc5[nH]4)c3n2)c1)C1CC1 [Compound 76, N-(5-(3-(4-(2-Fluorophenyl)-1H-pyrrolo[2,3-b]pyridin-2-yl)-1H-pyrazolo [4,3-b]pyridin-5-yl)pyridin-3-yl)cyclopropanecarboxamide], the EC50 (SW480 colon cancer cells) is reported as 4.7 µM, the EC50 [1] is reported as greater than 10 µM and the inhibition at 10 µM [1] is reported as 37.3%. The EC50 (IL-6 (THP-1 cells)) was greater than 10 µM and the inhibition at 10 µM (IL-6 (THP-1 cells)) was 42.2%.

Compound Fc1ccccc1-c1ccnc2[nH]c(-c3n[nH]c4ccc(-c5cncc(CNCc6ccccc6)c5)nc34)cc12 [Compound 80, N-Benzyl-1-(5-(3-(4-(2-fluorophenyl)-1H-pyrrolo[2,3-b]pyridin-2-yl)-1H-pyrazolo[4,3-b]pyridin-5-yl)pyridin-3-yl)methanamine] has an EC50 (SW480 colon cancer cells) of 2.06 µM, an EC50 [1] greater than 10 µM and an inhibition at 10 µM [1] of 29%. For the same compound, the EC50 (IL-6 (THP-1 cells)) was greater than 10 µM and the inhibition at 10 µM (IL-6 (THP-1 cells)) was 18.2%.

Work on Fc1ccccc1-c1ccnc2[nH]c(-c3n[nH]c4ccc(-c5ccccn5)nc34)cc12 [Compound 84, 3-(4-(2-Fluorophenyl)-1H-pyrrolo[2,3-b]pyridin-2-yl)-5-(pyridin-2-yl)-1H-pyrazolo[4,3-b]pyridine] yielded an EC50 (SW480 colon cancer cells) greater than 10 µM, an inhibition at 10 µM (SW480 colon cancer cells) of 16.5% and an EC50 [1] greater than 10 µM. For the same compound, the inhibition at 10 µM [1] was 3% and the EC50 (IL-6 (THP-1 cells)) was 0.006 µM.

c1cncc(-c2ccc3[nH]nc(-c4cc5c(-c6cccnc6)ccnc5[nH]4)c3n2)c1 [Compound 88, 5-(Pyridin-3-yl)-3-(4-(pyridin-3-yl)-1H-pyrrolo[2,3-b]pyridin-2-yl)-1H-pyrazolo[4,3-b]pyridine] was tested, and the EC50 (SW480 colon cancer cells) was greater than 10 µM, the inhibition at 10 µM (SW480 colon cancer cells) was 31.2% and the EC50 [1] was greater than 10 µM. The inhibition at 10 µM [1] was 10.1%, the EC50 (IL-6 (THP-1 cells)) was greater than 10 µM and the inhibition at 10 µM (IL-6 (THP-1 cells)) was 38.7%.

Compound CN(C)c1cncc(-c2ccc3[nH]nc(-c4cc5c(-c6cccnc6)ccnc5[nH]4)c3n2)c1 [Compound 91, N,N-Dimethyl-5-(3-(4-(pyridin-3-yl)-1H-pyrrolo[2,3-b]pyridin-2-yl)-1H-pyrazolo[4,3-b]pyridin-5-yl)pyridin-3-amine] has an EC50 (SW480 colon cancer cells) greater than 10 µM, an inhibition at 10 µM (SW480 colon cancer cells) of 3.5% and an EC50 [1] greater than 10 µM. For the same compound, the inhibition at 10 µM [1] was 18.2%, the EC50 (IL-6 (THP-1 cells)) was greater than 10 µM and the inhibition at 10 µM (IL-6 (THP-1 cells)) was 36.3%.
